Structures can show the parent of a compound that is named as a salt.
Each compound was assayed against T1, Syk tyrosine kinase (Homo sapiens, UniProt P43405) (assay: Test for Syk tyrosine kinase inhibitory activity (ELISA)). Conditions: Syk tyrosine kinase (Carna Biosciences), 25 μM ATP in substrate solution, 30° C. 1 hour, n=2; read-out: Evaluation (IC50, concentration inhibiting the tyrosine kinase activity at 50%).
T1 construct: purchased Carna Biosciences, Inc
Assay type: biochemical
Experimental: Test Example 1: Test for Syk Tyrosine Kinase Inhibitory Activity
1. Preparation of Test Substance
A test substance was prepared at 10 mM in dimethyl sulfoxide (DMSO), and further diluted with DMSO to concentrations of 1000, 300, 100, 30, 10, 3, 1, 0.3, 0.1, 0.03, and 0.01 μM. The resulting solutions were further diluted to 20-fold with an assay buffer, whereby test substance solutions were prepared. As a negative control, a solution obtained by diluting DMSO to 20-fold with an assay buffer was used. As the assay buffer, a buffer containing 15 mM Tris-HCl (pH 7.5), 0.01 (v/v) % Tween-20, and 1 mM dithiothreitol was used.
2. Measurement of Syk Tyrosine Kinase Inhibitory Activity
The activity was measured using the ELISA method. Each of the test substance solutions was added to a streptavidine-coated 96-well place (DELFIA Strip Plate 8×12 wells, PerkinElmer Co., Ltd,) at 10 μL per well (n=2), and a substrate solution (625 nM biotinylated peptide substrate, 25 μM ATP, 25 mM MgCl2, 15 mM Tris-HCl (pH 7.5), 0.01 (v/v) % Tween-20, 1 mM dithiothreitol) was added to the plate at 20 μL per well, and the resulting mixture was stirred. Finally, Syk tyrosine kinase (Carna Biosciences, Inc.) (previously diluted to 0.025 nM with the assay buffer) was added to the plate at 20 μL per well, and the resulting mixture was stirred. A reaction was allowed to proceed at 30° C. for 1 hour. After the plate was washed 4 times with a washing buffer (50 mM Tris-HCl (pH 7.5, 150 mM NaCl, 0.02 (v/v) % Tween-20), a blocking buffer (0.1% bovine serum albumin, 50 mM Tris-HCl (pH 7.5), 150 mM NaCl, 0.02 (v/v) % Tween-20) was added to the plate at 150 μL per well, and blocking was performed at 30° C. for 30 minutes. Then, the blocking buffer was removed, and a horseradish peroxidase-labeled anti-phosphorylated tyrosine antibody (BD Biosciences, Inc.) (previously diluted to 10000-fold with the blocking buffer) was added to the plate at 100 μL per well, and the plate was incubated at 30° C. for 30 minutes. After the plate was washed 4 times with the washing buffer, a 3,3′,5,5′-tetramethylbenzidine solution (Sigma-Aldrich Co., Ltd.) was added to the plate at 100 μL per well to develop the color for 10 minutes. The reaction was stopped by adding 0.1 M sulfuric acid at 100 μL per well. The absorbance at 450 nm was measured using a microplate reader (Multiskan F C, Thermo Fisher Scientific K,K.).
3. Analysis of Measurement Results
A non-linear regression analysis was performed for the measured absorbance using the SAS system (SAS institute. Inc.), and a concentration of each of the test substances: inhibiting the tyrosine kinase activity at 50% (IC50 ) was calculated. A case where IC50 is […] was evaluated as ***, a case where IC50 is 5 nM or more and less than 50 nM was evaluated as **, and a case where IC50 is 50 nM or more and less than 500 nM was evaluated as *, which are shown in the column of evaluation item.

| Structure (SMILES) | IC50 [nM] |
| --- | --- |
| N#Cc1ccnc(Nc2cc(C3CC3)cc(-c3ccc(N4CCC(O)CC4)nc3)n2)c1 [Example 20, 2-{[4-cyclopropyl-6′-(4-hydroxypiperidin-1-yl)-2,3′-bipyridin-6-yl]amino}pyridine-4-carbonitrile hydrochloride] | 5 to 50 |
| COCCNc1ccc(-c2cc(C3CC3)cc(Nc3cc(C#N)ccn3)n2)cn1 [Example 21, 2-({4-cyclopropyl-6′-[(2-methoxyethyl)amino]-2,3′-bipyridin-6-yl}amino)pyridine-4-carbonitrile hydrochloride] | 5 to 50 |
| N#Cc1ccnc(Nc2cc(C3CC3)cc(-c3ccc(N4CC[C@@H](O)C4)nc3)n2)c1 [Example 22, 2-({4-cyclopropyl-6′-[(3R)-3-hydroxypyrrolidin-1-yl]-2,3′-bipyridin-6-yl}amino)pyridine-4-carbonitrile hydrochloride] | 5 to 50 |
| N#Cc1ccnc(Nc2cc(C3CC3)cc(-c3ccc(NCCCO)nc3)n2)c1 [Example 23, 2-({4-cyclopropyl-6′-[(3-hydroxypropyl)amino]-2,3′-bypyridin-6-yl}amino)pyridine-4-carbonitrile hydrochloride] | 5 to 50 |
| CC(C)(CO)CNc1ccc(-c2cc(C3CC3)cc(Nc3cc(C#N)ccn3)n2)cn1 [Example 24, 2-({4-cyclopropyl-6′-[(3-hydroxy-2,2-dimethylpropyl)amino]-2,3′-bipyridin-6-yl}amino)pyridine-4-carbonitrile hydrochloride] | 5 to 50 |
| N#Cc1ccnc(Nc2cc(C3CC3)cc(-c3ccc(N4CC[C@H](O)C4)nc3)n2)c1 [Example 25, 2-({4-cyclopropyl-6′-[(3S)-3-hydroxypyrrolidin-1-yl]-2,3′-bipyridin-6-yl}amino)pyridine-4-carbonitrile hydrochloride] | 5 to 50 |
| N#Cc1ccnc(Nc2cc(C3CC3)cc(-c3ccc(N4CCC(CO)CC4)nc3)n2)c1 [Example 26, 2-({4-cyclopropyl-6′-[4-(hydroxymethyl)piperidin-1yl]-2,3′-bipyridin-6-yl}amino)pyridine-4-carbonitrile hydrochloride] | 5 to 50 |
| N#Cc1ccnc(Nc2cc(C3CC3)cc(-c3ccc(N4CCSCC4)nc3)n2)c1 [Example 27, 2-{[4-cyclopropyl-6′-(thiomorphoiln-4-yl)-2,3′-bipyridin-6-yl]amino}pyridine-4-carbonitrile hydrochloride] | 5 to 50 |
| N#Cc1ccnc(Nc2cc(C3CC3)cc(-c3ccc(N4CCC(N)CC4)nc3)n2)c1 [Example 28, 2-{[6′-(4-aminopiperidin-1-yl)-4-cyclopropyl-2,3′-bipyridin-6-yl]amino}pyridine-4-carbonitrile dihydrochloride] | 5 to 50 |
| CNC1CCN(c2ccc(-c3cc(C4CC4)cc(Nc4cc(C#N)ccn4)n3)cn2)CC1 [Example 29, 2-({4-cyclopropyl-6′-[4-(methylamino)piperidin-1-yl]-2,3′-bipyridin-6-yl}amino)pyridine-4-carbonitrile dihydrochloride] | 5 to 50 |
| N#Cc1ccnc(Nc2cc(C3CC3)cc(-c3ccc(N4CCC(F)CC4)nc3)n2)c1 [Example 30, 2-{[4-cyclopropyl-6′-(4-fluoropiperidin-1-yl)-2,3′-bipyridin-6-yl]amino}pyridine-4-carbonitrile hydrochloride] | 50 to 500 |
| N#Cc1ccnc(Nc2cc(C3CC3)cc(-c3ccc(N(CCO)CCO)nc3)n2)c1 [Example 31, 2-({6′-[bis(2-hydroxyethyl)amino]-4-cyclopropyl-2,3′-bipyridin-6-yl}amino)pyridine-4-carbonitrile hydrochloride] | 5 to 50 |
| N#Cc1ccnc(Nc2cc(C3CC3)cc(-c3ccc(N4CCCNCC4)nc3)n2)c1 [Example 32, 2-{[4-cyclopropyl-6′-(1,4-diazepan-1-yl)-2,3′-bipyridin-6-yl]amino}pyridine-4-carbonitrile dihydrochloride] | 5 to 50 |
| N#Cc1ccnc(Nc2cc(C3CC3)cc(-c3ccc(N4CCC[C@H](O)C4)nc3)n2)c1 [Example 33, 2-({4-cyclopropyl-6′-[(3S)-3-hydroxypiperidin-1-yl]-2,3′-bipyridin-6-yl}amino)pyridine-4-carbonitrile hydrochloride] | 5 to 50 |
| N#Cc1ccnc(Nc2cc(C3CC3)cc(-c3ccc(N4CCC[C@@H](O)C4)nc3)n2)c1 [Example 34, 2-({4-cyclopropyl-6′-[(3R)-3-hydroxypiperidin-1-yl]-2,3′-bipyridin-6-yl}amino)pyridine-4-carbonitrile hydrochloride] | 5 to 50 |
| N#Cc1ccnc(Nc2cc(C3CC3)cc(-c3cnc(N4CCC(O)CC4)nc3)n2)c1 [Example 35, 2-({4-cyclopropyl-6-[2-(4-hydroxypiperidin-1-yl)pyrimidin-5-yl]pyridin-2-yl}amino)pyridine-4-carbonitrile hydrochloride] | 50 to 500 |
| Cn1ncc2cc(-c3cc(C4CC4)cc(Nc4cc(C#N)ccn4)n3)ccc21 [Example 36, 2-{[4-cyclopropyl-6-(1-methyl-1H-indazol-5-yl)pyridin-2-yl]amino}pyridine-4-carbonitrile hydrochloride] | 5 to 50 |
| Cn1ncc2ccc(-c3cc(C4CC4)cc(Nc4cc(C#N)ccn4)n3)cc21 [Example 37, 2{[4-cyclopropyl-6-(1-methyl-1H-indazol-6-yl)pyridin-2-yl]amino}pyridine-4-carbonitrile hydrochloride] | 5 to 50 |
| CN1CCCN(c2ccc(-c3cc(C4CC4)cc(Nc4cc(C#N)ccn4)n3)cn2)CC1 [Example 38, 2-{[4-cyclopropyl-6′-(4-methyl-1,4-diazepan-1-yl)-2,3′-bipyridin-6-yl]amino}pyridine-4-carbonitrile dihydrochloride] | 5 to 50 |
| CNC(=O)C1CCCN1c1ccc(-c2cc(C3CC3)cc(Nc3cc(C#N)ccn3)n2)cn1 (centres unmarked) [Example 39, 1-{6-[(4-cyanopyridin-2-yl)amino]-4-cyclopropyl-2,3′-bipyridin-6′-yl}-N-methylpyrrolidine-2-carboxamide hydrochloride] | 50 to 500 |
| N#Cc1ccnc(Nc2cc(C3CC3)cc(-c3ccc(N4CCC[C@H]4C(N)=O)nc3)n2)c1 [Example 40, (S)-1-{6-[(4-cyanopyridin-2-yl)amino]-4-cyclopropyl-2,3′-bipyridin-6′-yl}pyrrolidine-2-carboxamide hydrochloride] | 50 to 500 |
| N#Cc1ccnc(Nc2cc(C3CC3)cc(-c3ccc(N4CCC(O)CC4)cc3)n2)c1 [Example 41, 2-({4-cyclopropyl-6-[4-(4-hydroxypiperidin-1-yl)phenyl]pyridin-2-yl}amino)pyridine-4-carbonitrile hydrochloride] | 50 to 500 |
| CC(=O)N[C@H]1CCN(c2ccc(-c3cc(C4CC4)cc(Nc4cc(C#N)ccn4)n3)cn2)C1 [Example 42, N-[(3S)-1-{6-[(4-cyanopyridin-2-yl)amino]-4-cyclopropyl-2,3′-bipyridin-6′-yl}pyrrolidin-3-yl]acetamide hydrochloride] | 50 to 500 |
| CCNC(=O)N1CCN(c2ccc(-c3cc(C4CC4)cc(Nc4cc(C#N)ccn4)n3)cn2)CC1 [Example 43, 4-{6-[(4-cyanopyridin-2-yl)amino]-4-cyclopropyl-2,3′-bipyridin-6′-yl}-N-ethylpiperazine-1-carboxamide hydrochloride] | 50 to 500 |
| CC(C)NC(=O)N1CCN(c2ccc(-c3cc(C4CC4)cc(Nc4cc(C#N)ccn4)n3)cn2)CC1 [Example 44, 4-{6-[(4-cyanopyridin-2-yl)amino]-4-cyclopropyl-2,3′-bipyridin-6′-yl}-N-(propan-2-yl)piperazine-1-carboxamide hydrochloride] | 50 to 500 |
| N#Cc1ccnc(Nc2cc(C3CC3)cc(-c3ccc(N4CC[C@@H](NC(N)=O)C4)nc3)n2)c1 [Example 45, 1-[(3R)-1-{6-[(4-cyanopyridin-2-yl)amino]-4-cyclopropyl-2,3′-bipyridin-6′-yl}pyrrolidin-3-yl]urea hydrochloride] | 50 to 500 |
